Reference: paper PMC10724293, “New ruthenium-xanthoxylin complex eliminates colorectal cancer stem cells by targeting the heat shock protein 90 chaperone” (Cell Death & Disease, 2023)

How the values were obtained:
[1] = system: HCT116 cells; assay: Wound healing assay; type: cell-based, human; settings: 72 h, noncytotoxic concentrations
Procedure: Wound healing assays were carried out as previously described, with some modifications. Cells were grown to 80–90% confluency in 12-well plates, and a wound was created by dragging a plastic pipette tip across the cell surface. The remaining cells were washed three times in saline to remove cell debris before being incubated in serum-free medium and treated with the drug. Using an optical microscope, migrating cells in front of the wound were photographed after 0 and 72 h of incubation (Nikon, TS 100). ImageJ software was used to calculate the wound area (NIH, USA).

[2] = system: HCT116 cells; assay: Colonosphere assay; type: cell-based, human
Procedure: HCT116 cells, at densities of 1.25 × 10^5 cells/ml, were cultured in 24-well low adhesion plates (Corning, USA) in serum-free DMEM-F12 supplemented with 20 ng/ml bFGF (PeproTech, USA), 20 ng/ml EGF (PeproTech, USA), and B27 supplement (Invitrogen, Carlsbad, CA, USA). On the following day, the cells were subjected to drug concentrations of 20, 10, 5, 2.5, and 1.25 μM. The cells were photographed using an optical microscope after 0, 24, 48, and 72 h of incubation (Leica, DMI8). Furthermore, 10 µM RXC-treated cells were stained with acridine orange/PI and analyzed by confocal microscopy or stained with anti-CD133 antibody plus YO-PRO-1 and analyzed by flow cytometry.

[3] = system: HCT116 cells; assay: Mitochondrial transmembrane potential, rhodamine 123 flow cytometry; type: cell-based, human; settings: 24 h, all concentrations tested
Procedure: To ensure mitochondrial transmembrane potential, the cells were stained with rhodamine 123 (5 µg/ml, Sigma-Aldrich Co.) at 37 °C for 15 min in the dark. The cells were then washed with saline and incubated in saline for 30 min in the dark at 37 °C, and cell fluorescence was determined using flow cytometry.

[4] = system: CR01 (colorectal carcinoma); assay: Alamar blue viability of primary cancer cells; type: cell-based, human; settings: primary CRC (first listed); 25 μg/ml (RXC 31.3 μM, DOX 46 μM); 96 h
Procedure: (§1) The Alamar blue assay was used to determine cell viability as previously described. Cells were seeded into 96-well plates at a density of 7 × 10^3 cells per well for adherent cells or 3 × 10^4 cells per well for suspended cells. The drug was added to each well after 24 h of incubation for adherent cells or immediately for suspended cells and incubated for an additional 72 h. […] Each well received 100 µM resazurin (Sigma-Aldrich Co. St. Louis, MO, United States) four (for cell lines) or 24 (for primary culture) h before the end of the incubation. A SpectraMax 190 Microplate Reader (Molecular Devices, Sunnyvale, CA, USA) was used to measure absorbance at 570 and 600 nm.
(§2) CR03 (metastatic cholangiocarcinoma) CR04 (malignant papillary mesothelioma) […]
(§3) Figure S1. […] Cells were exposed to 25 […]
(§4) measured after 96 h using the Alamar blue assay. The data are presented as the […]
(§5) mean ± S.E.M. of four replicates. * P < 0.05 compared to CTL by one-way ANOVA […]
(§6) followed by Dunnett's multiple comparisons test. […]

[5] = system: CR03 (metastatic cholangiocarcinoma); assay: Alamar blue viability of primary cancer cells; type: cell-based, human; settings: 25 μg/ml (RXC 31.3 μM, DOX 46 μM), 96 h
Procedure: as §1, §2, §3, §4, §5, §6

[6] = system: CR04 (malignant papillary mesothelioma); assay: Alamar blue viability of primary cancer cells; type: cell-based, human; settings: primary papilliferous malignant mesothelioma; 25 μg/ml (RXC 31.3 μM, DOX 46 μM); 96 h
Procedure: as §1, §2, §3, §4, §5, §6

[7] = system: MCF-7; assay: Alamar blue cytotoxicity assay; type: cell-based, human; settings: 72 h, read-out: IC50 and 95%CI
Procedure: as §1

[8] = system: HSC-3; assay: Alamar blue cytotoxicity assay; type: cell-based, human; settings: 72 h, read-out: IC50 and 95%CI
Procedure: as §1

[9] = system: K-562; assay: Alamar blue cytotoxicity assay; type: cell-based, human; settings: 72 h, read-out: IC50 and 95%CI
Procedure: as §1

[10] = system: HL-60; assay: Alamar blue cytotoxicity assay; type: cell-based, human; settings: 72 h, read-out: IC50 and 95%CI
Procedure: as §1

[11] = system: THP-1; assay: Alamar blue cytotoxicity assay; type: cell-based, human; settings: 72 h, read-out: IC50 and 95%CI
Procedure: as §1

[12] = system: OVCAR-3; assay: Alamar blue cytotoxicity assay; type: cell-based, human; settings: 72 h, read-out: IC50 and 95%CI
Procedure: as §1

[13] = system: NB4; assay: Alamar blue cytotoxicity assay; type: cell-based, human; settings: 72 h, read-out: IC50 and 95%CI
Procedure: as §1

[14] = system: H1299; assay: Alamar blue cytotoxicity assay; type: cell-based, human; settings: 72 h, read-out: IC50 and 95%CI
Procedure: as §1

[15] = system: JUKART; assay: Alamar blue cytotoxicity assay; type: cell-based, human; settings: 72 h, read-out: IC50 and 95%CI
Procedure: as §1

[16] = system: KG-1a; assay: Alamar blue cytotoxicity assay; type: cell-based, human; settings: 72 h, read-out: IC50 and 95%CI
Procedure: as §1

[17] = system: MDA-MB-231; assay: Alamar blue cytotoxicity assay; type: cell-based, human; settings: 72 h, read-out: IC50 and 95%CI
Procedure: as §1

[18] = system: CAL 27; assay: Alamar blue cytotoxicity assay; type: cell-based, human; settings: 72 h, read-out: IC50 and 95%CI
Procedure: as §1

[19] = system: PANC-1; assay: Alamar blue cytotoxicity assay; type: cell-based, human; settings: 72 h, read-out: IC50 and 95%CI
Procedure: as §1

[20] = system: HCT116; assay: Alamar blue cytotoxicity assay; type: cell-based, human; settings: 72 h, read-out: IC50 and 95%CI
Procedure: as §1

[21] = system: SCC4; assay: Alamar blue cytotoxicity assay; type: cell-based, human; settings: 72 h, read-out: IC50 and 95%CI
Procedure: as §1

[22] = system: HepG2; assay: Alamar blue cytotoxicity assay; type: cell-based, human; settings: 72 h, read-out: IC50 and 95%CI
Procedure: as §1

[23] = system: U-87 MG; assay: Alamar blue cytotoxicity assay; type: cell-based, human; settings: 72 h, read-out: IC50 and 95%CI
Procedure: as §1

[24] = system: SCC-25; assay: Alamar blue cytotoxicity assay; type: cell-based, human; settings: 72 h, read-out: IC50 and 95%CI
Procedure: as §1

[25] = system: DU 145; assay: Alamar blue cytotoxicity assay; type: cell-based, human; settings: 72 h, read-out: IC50 and 95%CI
Procedure: as §1

[26] = system: A549; assay: Alamar blue cytotoxicity assay; type: cell-based, human; settings: 72 h, read-out: IC50 and 95%CI
Procedure: as §1

[27] = system: A-375; assay: Alamar blue cytotoxicity assay; type: cell-based, human; settings: 72 h, read-out: IC50 and 95%CI
Procedure: as §1

[28] = system: SCC-9; assay: Alamar blue cytotoxicity assay; type: cell-based, human; settings: 72 h, read-out: IC50 and 95%CI
Procedure: as §1

With cis-[Ru(phen)2(xant)](PF6) [RXC] the cell migration [1] was “inhibited cell migration”, the “HCT116 CD133-positive cells in colonospheres” value ([2]; 10 μM, 24 h, control 47.8%) was 19.5% and the colonosphere formation ([2]; 1.25-20 μM, 24, 48, 72 h) was “reduced colonosphere formation”. For the same substance, the mitochondrial transmembrane potential [3] was “mitochondrial depolarization”, the reduced cell viability [4] was 79.8% and the reduced cell viability [5] was 79.2%. For the same substance, the reduced cell viability [6] was 79.6%, the IC50 [7] was 9.55 µM and the IC50 [8] was 4.84 µM. It also gave an IC50 [9] of 3.88 µM, an IC50 [10] of 3.2 µM and an IC50 [11] of 2.8 µM. For the same substance, the IC50 [12] was 1.47 µM, the IC50 [13] was 3.38 µM and the IC50 [14] was 10.9 µM. The IC50 [15] was 4.08 µM, the IC50 [16] was 2.31 µM and the IC50 [17] was 2.36 µM. It also gave an IC50 [18] of 5.4 µM, an IC50 [19] of 11.8 µM and an IC50 [20] of 6.5 µM. For the same substance, the IC50 [21] was 1.89 µM, the IC50 [22] was 6.28 µM and the IC50 [23] was 7.03 µM. For the same substance, the IC50 [24] was 10.2 µM, the IC50 [25] was 4.17 µM and the IC50 [26] was 7.03 µM. For the same substance, the IC50 [27] was 3.46 µM, the IC50 [28] was 2.81 µM and the lung histology (2 mg/kg, one animal) was “hemorrhage with hemosiderin deposits”. For the same substance, the hematological analysis (RXC 2 mg/kg, DOX 0.8 mg/kg, i.p. once a day for 2 weeks) was “reduction in erythrocytes”, the “animals died during the treatment” value (RXC 2 mg/kg, DOX 0.8 mg/kg, i.p. once a day for 2 weeks, n = 15 per group) was “four” and the body weight (RXC 2 mg/kg, DOX 0.8 mg/kg, i.p. once a day for 2 weeks, p < 0.05) was “decrease in body weight”. For the same substance, the liver histology (RXC 2 mg/kg, DOX 0.8 mg/kg, mainly in treated animals) was “focal areas of hepatocyte coagulation necrosis” and the kidney histology (RXC 2 mg/kg, DOX 0.8 mg/kg, more evident than in control) was “focal areas of coagulation necrosis of the renal cortex tubules”.
